Measurements: PubChem BioAssay (NCI)
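Compound exposure: 48 hours, 5 concentrations, 96-well plates. Abbreviation: GI50, concentration required for 50% inhibition of growth. TGI marks complete inhibition of growth.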

Assays:
Assay in all cases: NCI anticancer screen, dose series, 48 h
[1] = tested on: NCI/ADR-RES ovarian
[2] = tested on: SNB-19 CNS
[3] = tested on: SK-OV-3 ovarian
[4] = tested on: RXF 393 renal
[5] = tested on: RPMI-8226 leukemia
[6] = tested on: SR leukemia
[7] = tested on: CCRF-CEM leukemia
[8] = tested on: SF-539 CNS
[9] = tested on: MCF7 breast
[10] = tested on: M14 melanoma
[11] = tested on: KM12 colon
[12] = tested on: T-47D breast
[13] = tested on: OVCAR-5 ovarian
[14] = tested on: IGROV1 ovarian
[15] = tested on: HCT-15 colon
[16] = tested on: HCT-116 colon
[17] = tested on: SK-MEL-28 melanoma
[18] = tested on: A549 NSCLC
[19] = tested on: SW-620 colon
[20] = tested on: MALME-3M melanoma
[21] = tested on: HCC-2998 colon
[22] = tested on: NCI-H460 lung
[23] = tested on: LOX IMVI melanoma
[24] = tested on: BT-549 breast
[25] = tested on: COLO 205 colon
[26] = tested on: UACC-62 melanoma
[27] = tested on: SF-268 CNS
[28] = tested on: OVCAR-3 ovarian
[29] = tested on: 786-0 renal
[30] = tested on: HS 578T breast
[31] = tested on: K-562 leukemia
[32] = tested on: NCI-H226 lung
[33] = tested on: HT29 colon
[34] = tested on: MDA-MB-435
[35] = tested on: OVCAR-8 ovarian
[36] = tested on: UACC-257 melanoma
[37] = tested on: DU-145 prostate
[38] = tested on: TK-10 renal
[39] = tested on: SK-MEL-5 melanoma
[40] = tested on: PC-3 prostate
[41] = tested on: HOP-62 NSCLC
[42] = tested on: SN12C renal
[43] = tested on: SK-MEL-2 melanoma
[44] = tested on: SF-295 CNS
[45] = tested on: NCI-H23 lung
[46] = tested on: HOP-92 NSCLC
[47] = tested on: UO-31 renal
[48] = tested on: CAKI-1 renal
[49] = tested on: HL-60(TB) leukemia
[50] = tested on: A498 renal
[51] = tested on: U251 CNS
[52] = tested on: ACHN renal
[53] = tested on: MDA-MB-231 breast
[54] = tested on: NCI-H522 lung
[55] = tested on: MOLT-4 leukemia
[56] = tested on: OVCAR-4 ovarian
[57] = tested on: SNB-75 CNS
[58] = tested on: EKVX NSCLC

## C[C@@H](Oc1cc(-c2cnn(C3CC4(CCNCC4)C3)c2)cnc1N)c1c(F)ccc(Cl)c1Cl
[1]
  GI50: 6.61 µM
  TGI: 21.2 µM
[2]
  GI50: 4.29 µM
  TGI: 18.1 µM
[3]
  GI50: 2.43 µM
  TGI: 6.75 µM
[4]
  GI50: 1.35 µM
  TGI: 2.73 µM
[5]
  GI50: 1.63 µM
  TGI: 4.95 µM
[6]
  GI50: 0.0467 µM
  TGI: 1.53 µM
[7]
  GI50: 1.31 µM
  TGI: 6.31 µM
[8]
  GI50: 1.51 µM
  TGI: 2.96 µM
[9]
  GI50: 0.383 µM
  TGI: 1.88 µM
[10]
  GI50: 1.15 µM
  TGI: 2.61 µM
[11]
  GI50: 0.0399 µM
  TGI: 1.39 µM
[12]
  GI50: 1.58 µM
  TGI: 3.24 µM
[13]
  GI50: 1.39 µM
  TGI: 6.65 µM
[14]
  GI50: 2.23 µM
  TGI: 7.91 µM
[15]
  GI50: 1.38 µM
  TGI: 3.5 µM
[16]
  GI50: 0.671 µM
  TGI: 2.65 µM
[17]
  GI50: 1.55 µM
  TGI: 3.2 µM
[18]
  GI50: 1.04 µM
  TGI: 3.63 µM
[19]
  GI50: 0.537 µM
  TGI: 2.33 µM
[20]
  GI50: 1.29 µM
  TGI: 3.02 µM
[21]
  GI50: 1.42 µM
  TGI: 3.1 µM
[22]
  GI50: 0.855 µM
  TGI: 2.84 µM
[23]
  GI50: 1.22 µM
  TGI: 2.56 µM
[24]
  GI50: 1.75 µM
  TGI: 3.78 µM
[25]
  GI50: 0.293 µM
  TGI: 0.864 µM
[26]
  GI50: 1.55 µM
  TGI: 3.16 µM
[27]
  GI50: 1.64 µM
  TGI: 4.71 µM
[28]
  GI50: 1.83 µM
  TGI: 5.19 µM
[29]
  GI50: 1.63 µM
  TGI: 3.17 µM
[30]
  GI50: 1.37 µM
  TGI: 4.15 µM
[31]
  GI50: 0.228 µM
  TGI: 1.4 µM
[32]
  GI50: 2.51 µM
  TGI: 17.5 µM
[33]
  GI50: 0.446 µM
  TGI: 2.17 µM
[34]
  GI50: 1.06 µM
  TGI: 2.39 µM
[35]
  GI50: 2.71 µM
  TGI: 12.3 µM
[36]
  GI50: 1.47 µM
  TGI: 2.99 µM
[37]
  GI50: 2.27 µM
  TGI: 11.5 µM
[38]
  GI50: 1.85 µM
  TGI: 4.7 µM
[39]
  GI50: 1.47 µM
  TGI: 2.85 µM
[40]
  GI50: 0.758 µM
  TGI: 5.79 µM
[41]
  GI50: 1.25 µM
  TGI: 5.9 µM
[42]
  GI50: 1.49 µM
  TGI: 7.1 µM
[43]
  GI50: 1.93 µM
  TGI: 3.74 µM
[44]
  GI50: 0.612 µM
  TGI: 2.43 µM
[45]
  GI50: 1.09 µM
  TGI: 11.4 µM
[46]
  GI50: 0.54 µM
  TGI: 3.13 µM
[47]
  GI50: 1.89 µM
  TGI: 4.28 µM
[48]
  GI50: 2.41 µM
  TGI: 7.2 µM
[49]
  GI50: 1.28 µM
  TGI: 3.36 µM
[50]
  GI50: 0.488 µM
  TGI: 2.35 µM
[51]
  GI50: 1.6 µM
  TGI: 3.92 µM
[52]
  GI50: 2 µM
  TGI: 7.54 µM
[53]
  GI50: 1.26 µM
  TGI: 3 µM
[54]
  GI50: 1.48 µM
  TGI: 3.12 µM
[55]
  GI50: 1.29 µM
  TGI: 5.82 µM
[56]
  GI50: 1.79 µM
  TGI: 6.53 µM
[57]
  GI50: 1.32 µM
  TGI: 2.92 µM

## O=S(=O)(NCCNc1cc(-c2cn(-c3ccccc3)nc2-c2cccc(O)c2)ccn1)c1ccc(F)cc1
[1]
  GI50: 2.69 µM
[2]
  GI50: 3.72 µM
  TGI: 31.7 µM
[3]
  GI50: 2.85 µM
  TGI: 12.3 µM
[4]
  GI50: 2.09 µM
  TGI: 7.54 µM
[5]
  GI50: 2.23 µM
  TGI: 6.12 µM
[6]
  GI50: 1.6 µM
  TGI: 4.88 µM
[7]
  GI50: 3.28 µM
  TGI: 17.3 µM
[8]
  GI50: 1.71 µM
  TGI: 3.95 µM
[9]
  GI50: 2.19 µM
  TGI: 6.66 µM
[10]
  GI50: 2.27 µM
  TGI: 6.41 µM
[11]
  GI50: 2.34 µM
  TGI: 8.26 µM
[12]
  GI50: 2.01 µM
  TGI: 6.86 µM
[13]
  GI50: 1.93 µM
  TGI: 5.69 µM
[14]
  GI50: 3.21 µM
  TGI: 19.8 µM
[15]
  GI50: 1.8 µM
  TGI: 5.75 µM
[16]
  GI50: 2.86 µM
  TGI: 10.4 µM
[17]
  GI50: 2.03 µM
  TGI: 5.39 µM
[18]
  GI50: 3.43 µM
  TGI: 12.1 µM
[19]
  GI50: 3.52 µM
  TGI: 13.6 µM
[20]
  GI50: 1.73 µM
  TGI: 3.88 µM
[21]
  GI50: 1.98 µM
  TGI: 4.19 µM
[22]
  GI50: 3.12 µM
  TGI: 9.12 µM
[24]
  GI50: 2.03 µM
  TGI: 7.68 µM
[25]
  GI50: 1.91 µM
  TGI: 4.34 µM
[26]
  GI50: 1.99 µM
  TGI: 4.73 µM
[27]
  GI50: 2.42 µM
  TGI: 8.93 µM
[28]
  GI50: 1.98 µM
  TGI: 4.59 µM
[29]
  GI50: 2.49 µM
  TGI: 14.3 µM
[30]
  GI50: 2.94 µM
  TGI: > 100 µM
[32]
  GI50: 3.06 µM
  TGI: 13.7 µM
[33]
  GI50: 1.99 µM
  TGI: 4.79 µM
[34]
  GI50: 2.3 µM
  TGI: 7.2 µM
[35]
  GI50: 3.07 µM
  TGI: 14.1 µM
[36]
  GI50: 2.85 µM
  TGI: 7.14 µM
[58]
  GI50: 2.59 µM
  TGI: 20.3 µM
[37]
  GI50: 3.35 µM
  TGI: 16.8 µM
[38]
  GI50: 3.58 µM
  TGI: 9.84 µM
[39]
  GI50: 1.73 µM
  TGI: 3.22 µM
[40]
  GI50: 2.29 µM
  TGI: 10.3 µM
[41]
  GI50: 1.98 µM
  TGI: 5.44 µM
[42]
  GI50: 3.69 µM
  TGI: 35.1 µM
[43]
  GI50: 1.92 µM
  TGI: 4.32 µM
[44]
  GI50: 1.75 µM
  TGI: 3.9 µM
[45]
  GI50: 2.66 µM
  TGI: 10.8 µM
[46]
  GI50: 2.03 µM
  TGI: 8.48 µM
[47]
  GI50: 2.31 µM
  TGI: 7.88 µM
[48]
  GI50: 3.89 µM
  TGI: > 100 µM
[49]
  GI50: 2.43 µM
  TGI: 6.22 µM
[50]
  GI50: 2.69 µM
  TGI: 9.26 µM
[51]
  GI50: 2.62 µM
  TGI: 7.85 µM
[52]
  GI50: 2.32 µM
  TGI: 7.34 µM
[53]
  GI50: 1.88 µM
  TGI: 4.7 µM
[54]
  GI50: 1.49 µM
  TGI: 3.79 µM
[55]
  GI50: 2.23 µM
  TGI: 5.46 µM
[56]
  GI50: 3.05 µM
  TGI: > 100 µM
[57]
  GI50: 2.83 µM
  TGI: 16.5 µM
